Legend:
OCT2 (SLC22A2) = biological target: T1, OCT2 (SLC22A2) (Homo sapiens, UniProt O15244); test: Cellular uptake into OCT2-overexpressing HEK293 cells vs EV control cells (HPLC-MS/MS); settings: label = favoured enantiomer
T1 sequence (O15244 1-555): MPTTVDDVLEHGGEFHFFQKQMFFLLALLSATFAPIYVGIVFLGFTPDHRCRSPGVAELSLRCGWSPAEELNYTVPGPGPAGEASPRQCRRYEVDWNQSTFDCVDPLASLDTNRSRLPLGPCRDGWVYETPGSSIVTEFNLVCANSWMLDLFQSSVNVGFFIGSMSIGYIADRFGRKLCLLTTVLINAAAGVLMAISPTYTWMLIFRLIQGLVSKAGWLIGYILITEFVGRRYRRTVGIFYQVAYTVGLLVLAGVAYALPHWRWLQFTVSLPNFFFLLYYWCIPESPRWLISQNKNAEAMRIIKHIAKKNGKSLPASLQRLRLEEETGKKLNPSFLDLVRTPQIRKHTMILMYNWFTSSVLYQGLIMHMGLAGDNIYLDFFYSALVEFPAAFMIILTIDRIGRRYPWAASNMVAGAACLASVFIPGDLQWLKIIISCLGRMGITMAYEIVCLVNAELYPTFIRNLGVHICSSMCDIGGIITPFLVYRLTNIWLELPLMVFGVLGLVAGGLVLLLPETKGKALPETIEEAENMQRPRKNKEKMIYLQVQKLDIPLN

OCT1 (SLC22A1) = biological target: T2, OCT1 (SLC22A1) (Homo sapiens, UniProt O15245); test: Cellular uptake into OCT1-overexpressing HEK293 cells vs EV control cells (HPLC-MS/MS); settings: label = favoured enantiomer
T2 sequence (O15245 1-554): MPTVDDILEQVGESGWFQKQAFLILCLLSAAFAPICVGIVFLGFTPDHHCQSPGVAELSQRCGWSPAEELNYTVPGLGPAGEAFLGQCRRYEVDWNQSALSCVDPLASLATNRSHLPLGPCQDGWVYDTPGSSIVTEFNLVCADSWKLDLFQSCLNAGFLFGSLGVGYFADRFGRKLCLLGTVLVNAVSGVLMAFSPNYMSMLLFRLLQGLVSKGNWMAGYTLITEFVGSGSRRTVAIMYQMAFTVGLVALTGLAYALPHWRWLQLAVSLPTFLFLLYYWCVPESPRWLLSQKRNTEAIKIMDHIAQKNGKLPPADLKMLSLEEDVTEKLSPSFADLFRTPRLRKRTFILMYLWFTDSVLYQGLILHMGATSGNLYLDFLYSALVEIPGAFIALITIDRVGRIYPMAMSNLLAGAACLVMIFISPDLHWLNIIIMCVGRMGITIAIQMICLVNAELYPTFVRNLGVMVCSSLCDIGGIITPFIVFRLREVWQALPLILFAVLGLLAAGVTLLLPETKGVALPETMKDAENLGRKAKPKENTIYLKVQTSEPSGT

OCT3 (SLC22A3) = biological target: T3, OCT3 (SLC22A3) (Homo sapiens, UniProt O75751); test: Cellular uptake into OCT3-overexpressing HEK293 cells vs EV control cells (HPLC-MS/MS); settings: label = favoured enantiomer
T3 sequence (O75751 1-556): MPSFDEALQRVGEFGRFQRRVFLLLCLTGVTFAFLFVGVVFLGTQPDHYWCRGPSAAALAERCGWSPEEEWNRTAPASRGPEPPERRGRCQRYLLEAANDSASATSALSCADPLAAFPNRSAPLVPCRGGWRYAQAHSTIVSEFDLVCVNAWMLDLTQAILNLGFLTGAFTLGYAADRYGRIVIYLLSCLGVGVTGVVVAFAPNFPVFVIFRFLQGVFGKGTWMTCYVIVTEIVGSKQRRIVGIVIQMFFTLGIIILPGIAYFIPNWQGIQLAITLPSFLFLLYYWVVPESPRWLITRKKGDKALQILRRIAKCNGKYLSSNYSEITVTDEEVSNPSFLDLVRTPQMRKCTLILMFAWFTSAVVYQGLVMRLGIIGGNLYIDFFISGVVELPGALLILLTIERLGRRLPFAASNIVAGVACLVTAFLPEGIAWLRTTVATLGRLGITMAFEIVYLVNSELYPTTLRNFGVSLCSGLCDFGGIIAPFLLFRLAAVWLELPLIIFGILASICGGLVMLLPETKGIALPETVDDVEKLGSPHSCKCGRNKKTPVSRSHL

MATE2-K (SLC47A2) = MATE2-K (SLC47A2) (Homo sapiens, UniProt Q86VL8)
MATE2-K (SLC47A2), sequence (Q86VL8 1-566 isoform Q86VL8-3): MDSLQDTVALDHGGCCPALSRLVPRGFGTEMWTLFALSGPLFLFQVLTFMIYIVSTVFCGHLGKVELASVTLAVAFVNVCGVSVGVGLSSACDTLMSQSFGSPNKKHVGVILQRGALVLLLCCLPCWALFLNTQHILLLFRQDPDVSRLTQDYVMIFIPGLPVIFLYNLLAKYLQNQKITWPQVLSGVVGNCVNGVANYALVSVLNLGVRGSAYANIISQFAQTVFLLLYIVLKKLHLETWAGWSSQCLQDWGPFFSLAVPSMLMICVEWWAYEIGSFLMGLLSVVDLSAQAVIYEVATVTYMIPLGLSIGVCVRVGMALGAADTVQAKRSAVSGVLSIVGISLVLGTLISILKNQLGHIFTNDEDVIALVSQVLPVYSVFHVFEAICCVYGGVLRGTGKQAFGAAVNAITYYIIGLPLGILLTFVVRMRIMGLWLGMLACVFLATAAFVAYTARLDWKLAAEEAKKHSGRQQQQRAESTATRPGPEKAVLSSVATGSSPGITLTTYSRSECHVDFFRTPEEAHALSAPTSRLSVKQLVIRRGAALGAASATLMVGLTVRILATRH

stereoselectivity OCT2 (uptake ratio of the more strongly transported enantiomer divided by that of the other) (OCT2 (SLC22A2)): 1.2-fold for (S)
stereoselectivity OCT1 (uptake ratio of the more strongly transported enantiomer divided by that of the other) (OCT1 (SLC22A1)): 1.3-fold for (S)
stereoselectivity OCT3 (uptake ratio of the more strongly transported enantiomer divided by that of the other) (OCT3 (SLC22A3)): 1.4-fold for (S)
stereoselectivity MATE2K (uptake ratio of the more strongly transported enantiomer divided by that of the other) (MATE2-K (SLC47A2)): 1.1-fold for (S)
Compound: C[C@H](N)CN [(S)-(−)-1,2-diaminopropane]

Source: publication PMC12340637, “Transport of Small Aliphatic Amines by Polyspecific Solute Carriers: Deciphering Structure–Function Relationships” (ACS Pharmacology & Translational Science, 2025)
